SMILES strings stand for the structures. Non-standard residues stand in square brackets, D forms with d. Residues, ends and D or L forms follow the SMILES beside them.

Assay [1] concerns postoperative pancreatic fistula (POPF). Put plainly: Rat pancreatic splenic duct transection (non-lethal) POPF model. It counts as in vivo. The procedure:
To investigate the biofunction of DPMD in preventing POPF, a slowly occurring POPF model was established in rats by transecting the peripancreatic splenic duct to induce a continuous but low leakage of pancreatic juice (Figure 3A). Following surgical modeling, DPMD, its L‐enantiomer LPMD, or normal saline (Ctrl) were topically applied on the incision site. After post operation, chymotrypsin leakage was assessed using a specific fluorescent dye. […] By monitoring ascitic and serum amylase and lipase levels over a span of 7 days following surgical modeling (Figure 3C), we were able to make inferences about the pathological score (Figure 3D) and the occurrence of POPF (Figure 3E). The noteworthy observation is that all the mock‐treated rats experienced POPF on day 3 following surgical modeling, and this phenomenon persisted until day 5 (Figure 3E). In contrast, LPMD reduced both the occurrence and severity of POPF, resulting in 33% of rats being healthy and only 67% experiencing minor POPF on day 3; furthermore, all rats fully recovered by day 5 (Figure 3E). […] Furthermore, both DPMD and LPMD treatments decreased inflammation markers including TNF‐α, IL‐6, IL‐8, IL‐33, sST2, CRP, HMGB1, MPO, PAF, PCT, PGE2, and SAA in rats’ serum (Figure 3G). […]
was performed using an Annexin V-Alexa Fluor 647/PI kit (Solarbio) according to the manufacturer’ s protocol. Briefly, adherent cells were detached with 0.25% EDTA-free trypsin, combined with floating cells from the supernatant. The pellet was washed twice with cold PBS and resuspended in 100 μL of 1× binding buffer. After adding Annexin V-647 and PI, cells were incubated for 15 min in the dark at room temperature. Samples were analyzed within 1h on a Sony MA900 flow cytometer.
3.12 Animal fluorescence imaging
Rats were intraperitoneally injected with 1 mL of rhodamine-labeled 0.5% (w/v) DPMD. […] The fluorescence emission intensity of the organs was measured using IVIS Spectrum system (PerkinElmer). […]

In assay [2] the test system is trypsin pre-incubated with aprotinin. Put plainly: Fluorescence anisotropy binding, aprotinin-blocked trypsin. As to conditions: inhibitor and protein both at 20 μM; Figure S3B. The text has this: Figure S3. The fluorescent anisotropy evaluation of binding affinity between DPMD peptide with Proteinase K (A), and inhibitor-saturated and blocked trypsin (B) and chymotrypsin (C). Trypsin/Chymotrypsin was saturated and blocked by aprotinin (Yeasen Biotechnology, trypsin/chymotrypsin inhibitor). (D-H) The fluorescent anisotropy evaluation of binding affinity between DPMD peptide with elastase (D), lipase (E), amylase(F), carboxypeptidase (G), albumin (H) and immunoglobulins (I).
Figure S4. The DLS analysis of trypsin, chymotrypsin and DPMD with/without trypsin or chymotrypsin. […]
data acquisition. A series of enzyme solutions with varying concentrations (maximum concentrations of trypsin and chymotrypsin were 20 μM each) were prepared in Tris-HCl buffer (10 mM Tris, 150 mM NaCl, 1 mM EDTA, pH 7.0). These enzyme solutions were added to the 96-well plate and incubated with 100 nM DPMD at room temperature for 30 minutes, with triplicates.
Fluorescence polarization was measured with an excitation wavelength of 470 nm and an emission […]
Plot the fluorescence intensity versus concentration data as scatter plots using Origin software.
For data analysis, fit the concentration-fluorescence polarization data with the logistic function in Origin 2021 software to obtain the fitting curve and determine the half-maximal effective concentration (EC50). […]
Background: Polarisation of emitted light reports the rotation of a fluorescent probe.

For the molecule `CC[C@@H](C)[C@@H](NC(=O)[C@@H](CCC(N)=O)NC(=O)[C@H](NC(=O)[C@@H](Cc1ccc(O)cc1)NC(=O)CNC(=O)[C@@H](CC(C)C)NC(=O)[C@H](NC(=O)[C@@H](CO)NC(=O)CNC(=O)[C@@H](C)NC(=O)[C@@H](CC(=O)O)NC(=O)[C@@H](C)NC(=O)[C@@H](CCCNC(=N)N)NC(=O)[C@@H](C)NC(=O)[C@@H](CC(=O)O)NC(=O)[C@@H](C)NC(=O)[C@@H](CCCNC(=N)N)NC(=O)[C@@H](C)NC(=O)[C@@H](CC(=O)O)NC(=O)[C@@H](C)NC(=O)[C@@H](CCCNC(=N)N)NC(=O)[C@@H](C)NC(=O)[C@@H](CC(=O)O)NC(=O)[C@@H](C)NC(=O)[C@H](N)CCCNC(=N)N)C(C)C)[C@H](C)CC)C(=O)N[C@H](CCCNC(=N)N)C(=O)O` [DPMD, Ac‐(D‐RADA)4‐CONH2] (H-[dR][dA][dD][dA][dR][dA][dD][dA][dR][dA][dD][dA][dR][dA][dD][dA]G[dS][dV][dL]G[dY][dI][dQ][dI][dR]-OH; N-terminus and C-terminus assumed), the “H&E staining of pancreatic tissue” value in assay [1] (Figure S10) was “reduced edema and inflammatory cell infiltration”. Also, the “chymotrypsin leakage by fluorescent dye imaging” value in assay [1] (topical application at incision site, Figure 3B) is given as “nearly complete suppression of leakage”. Also, the “serum inflammation markers (TNF-α, IL-6, IL-8, IL-33, sST2, CRP, HMGB1, MPO, PAF, PCT, PGE2, SAA)” value in assay [1] (within 7 days after surgery, Figure 3G) was “decreased”. Besides, in assay [2], the “anisotropy change with aprotinin-blocked trypsin” value was “only a minimal anisotropy change”.

These data come from paper PMC12520456, “Regulating Enzyme Activity via Microaggregates Mediated by Phase Separation” (Advanced Science, 2025).
